The test relates to MV-4-11 cells. The test is described as follows: Gene expression microarray analysis (Affymetrix PrimeView) and GSEA. As to conditions: MV-4-11 cells, 48 hours. Type of test: cell-based, human. Set-up: RFU PODN (11730768_x_at) / Fold change /veh PODN (11730768_x_at) / RFU LINC00158 (11744669_a_at) / Fold change /veh LINC00158 (11744669_a_at) / RFU DUSP10 (11751237_a_at) / Fold change /veh DUSP10 (11751237_a_at) / RFU ID3 (11757404_x_at) / Fold change /veh ID3 (11757404_x_at) / RFU PLEKHG5 (11737974_s_at) / Fold change /veh PLEKHG5 (11737974_s_at) / RFU LRRC4B (11730491_at) / Fold change /veh LRRC4B (11730491_at) / RFU GIMAP4 (11747438_a_at) / Fold change /veh GIMAP4 (11747438_a_at) / RFU KRT8 (11758183_x_at) / Fold change /veh KRT8 (11758183_x_at) / RFU CNN1 (11734310_a_at) / Fold change /veh CNN1 (11734310_a_at) / RFU VPS37D (11726825_at) / Fold change /veh VPS37D (11726825_at) / RFU C10orf10 (11716522_x_at) / Fold change /veh C10orf10 (11716522_x_at) / RFU KIR2DL2 /// KIR2DL4 /// KIR2DL5A /// KIR2DL5B /// KIR2DS1 /// KIR2DS2 /// KIR2DS3 /// KIR2DS4 /// KIR3DL3 /// KIR3DL3 /// KIR3DS1 (11738374_at) / Fold change /veh KIR2DL2 /// KIR2DL4 /// KIR2DL5A /// KIR2DL5B /// KIR2DS1 /// KIR2DS2 /// KIR2DS3 /// KIR2DS4 /// KIR3DL3 /// KIR3DL3 /// KIR3DS1 (11738374_at) / RFU C1QL1 (11718748_at) / Fold change /veh C1QL1 (11718748_at) / RFU TMPRSS4 (11747572_a_at) / Fold change /veh TMPRSS4 (11747572_a_at) / RFU HAMP (11756126_x_at) / Fold change /veh HAMP (11756126_x_at) / RFU RNFT2 (11725882_a_at) / Fold change /veh RNFT2 (11725882_a_at) / RFU NR4A2 (11747474_a_at) / Fold change /veh NR4A2 (11747474_a_at) / RFU ABCC12 (11746883_a_at) / Fold change /veh ABCC12 (11746883_a_at) / RFU TMEM136 (11760407_x_at) / Fold change /veh TMEM136 (11760407_x_at) / RFU CLDN22 /// WWC2 (11732394_at) / Fold change /veh CLDN22 /// WWC2 (11732394_at) / RFU HLA-DPB1 (11760878_x_at) / Fold change /veh HLA-DPB1 (11760878_x_at) / RFU SPINT1 (11716480_a_at) / Fold change /veh SPINT1 (11716480_a_at) / RFU GAP43 (11754022_s_at) / Fold change /veh GAP43 (11754022_s_at) / RFU A4GNT (11735810_at) / Fold change /veh A4GNT (11735810_at) / RFU PRB3 (11715151_x_at) / Fold change /veh PRB3 (11715151_x_at) / RFU TUBB4B (11761932_at) / Fold change /veh TUBB4B (11761932_at) / RFU CAPN14 (11732068_a_at) / Fold change /veh CAPN14 (11732068_a_at) / RFU TMCC2 (11721928_a_at) / Fold change /veh TMCC2 (11721928_a_at) / RFU IRGQ (11745062_a_at) / Fold change /veh IRGQ (11745062_a_at) / RFU FAM174B (11720279_a_at) / Fold change /veh FAM174B (11720279_a_at) / RFU TMPRSS4 (11748680_a_at) / Fold change /veh TMPRSS4 (11748680_a_at) / RFU FAM212B (11763350_a_at) / Fold change /veh FAM212B (11763350_a_at) / RFU PLEKHG5 (11743358_a_at) / Fold change /veh PLEKHG5 (11743358_a_at) / RFU ZSCAN30 (11745921_a_at) / Fold change /veh ZSCAN30 (11745921_a_at) / RFU CMKLR1 (11741424_a_at) / Fold change /veh CMKLR1 (11741424_a_at) / RFU LOC101060620 /// MAPK8IP1 (11723275_at) / Fold change /veh LOC101060620 /// MAPK8IP1 (11723275_at) / RFU SPTSSB (11747773_x_at) / Fold change /veh SPTSSB (11747773_x_at) / RFU PRSS12 (11739890_at) / Fold change /veh PRSS12 (11739890_at) / RFU BIN1 (11741810_x_at) / Fold change /veh BIN1 (11741810_x_at) / RFU WNT11 (11732464_a_at) / Fold change /veh WNT11 (11732464_a_at) / RFU C10orf10 (11716521_a_at) / Fold change /veh C10orf10 (11716521_a_at) / RFU C5orf56 (11738089_at) / Fold change /veh C5orf56 (11738089_at) / RFU CYB561 (11721691_x_at) / Fold change /veh CYB561 (11721691_x_at) / RFU ANKRD19P (11752326_a_at) / Fold change /veh ANKRD19P (11752326_a_at) / RFU OR2T12 /// OR2T33 /// OR2T8 (11738714_s_at) / Fold change /veh OR2T12 /// OR2T33 /// OR2T8 (11738714_s_at) / RFU VCAN (11748164_a_at) / Fold change /veh VCAN (11748164_a_at) / RFU JSRP1 (11732532_at) / Fold change /veh JSRP1 (11732532_at) / RFU KRTAP10-11 (11738290_x_at) / Fold change /veh KRTAP10-11 (11738290_x_at) / RFU MYO3A (11730013_a_at) / Fold change /veh MYO3A (11730013_a_at) / RFU EBF3 (11725865_a_at) / Fold change /veh EBF3 (11725865_a_at) / RFU CAMK2N1 (11719241_x_at) / Fold change /veh CAMK2N1 (11719241_x_at) / RFU C5orf56 (11738088_a_at) / Fold change /veh C5orf56 (11738088_a_at) / RFU OLFML3 (11715873_a_at) / Fold change /veh OLFML3 (11715873_a_at) / RFU LOC100653217 /// NTM (11731650_a_at) / Fold change /veh LOC100653217 /// NTM (11731650_a_at) / RFU MAPK11 (11762145_a_at) / Fold change /veh MAPK11 (11762145_a_at) / RFU FIZ1 (11724087_x_at) / Fold change /veh FIZ1 (11724087_x_at) / RFU OASL (11726364_x_at) / Fold change /veh OASL (11726364_x_at) / RFU SOX15 (11748057_x_at) / Fold change /veh SOX15 (11748057_x_at) / RFU CD79A (11719716_a_at) / Fold change /veh CD79A (11719716_a_at) / RFU HIST1H1D (11736915_at) / Fold change /veh HIST1H1D (11736915_at) / RFU CASKIN2 (11723855_a_at) / Fold change /veh CASKIN2 (11723855_a_at) / RFU LOC730098 (11760151_x_at) / Fold change /veh LOC730098 (11760151_x_at) / RFU OR4N2 (11742367_at) / Fold change /veh OR4N2 (11742367_at) / RFU PRRT2 (11749266_a_at) / Fold change /veh PRRT2 (11749266_a_at) / RFU SNX32 (11753110_a_at) / Fold change /veh SNX32 (11753110_a_at) / RFU CDHR5 (11726645_a_at) / Fold change /veh CDHR5 (11726645_a_at) / RFU RCAN1 (11760418_a_at) / Fold change /veh RCAN1 (11760418_a_at) / RFU FAM167A (11723789_a_at) / Fold change /veh FAM167A (11723789_a_at) / RFU FAM26E (11764081_at) / Fold change /veh FAM26E (11764081_at) / RFU ISYNA1 (11749810_s_at) / Fold change /veh ISYNA1 (11749810_s_at) / RFU ACY1 (11761880_at) / Fold change /veh ACY1 (11761880_at) / RFU 11764098_at / Fold change /veh 11764098_at / RFU SAMD14 (11745864_x_at) / Fold change /veh SAMD14 (11745864_x_at) / RFU NPB (11741838_a_at) / Fold change /veh NPB (11741838_a_at) / RFU TMPRSS6 (11731388_a_at) / Fold change /veh TMPRSS6 (11731388_a_at) / RFU KRTAP10-2 (11738614_at) / Fold change /veh KRTAP10-2 (11738614_at) / RFU ARHGAP8 /// PRR5-ARHGAP8 (11727945_x_at) / Fold change /veh ARHGAP8 /// PRR5-ARHGAP8 (11727945_x_at) / RFU KRTAP5-7 /// NADSYN1 (11734609_at) / Fold change /veh KRTAP5-7 /// NADSYN1 (11734609_at) / RFU RASL12 (11751679_a_at) / Fold change /veh RASL12 (11751679_a_at) / RFU CDKN2B (11736163_a_at) / Fold change /veh CDKN2B (11736163_a_at) / RFU PRF1 (11729649_at) / Fold change /veh PRF1 (11729649_at) / RFU, ZNF638 /// ZNF638-IT1 / Fold change vs veh, ZNF638 /// ZNF638-IT1 / RFU, PANK3 / Fold change vs veh, PANK3 / RFU, SH3YL1 / Fold change vs veh, SH3YL1 / RFU, ZEB2 / Fold change vs veh, ZEB2 / RFU, NRIP1 / Fold change vs veh, NRIP1 / RFU, PTTG1IP / Fold change vs veh, PTTG1IP / RFU, CAPN2 / Fold change vs veh, CAPN2 / RFU, MED14 / Fold change vs veh, MED14 / RFU, SNORA58 / Fold change vs veh, SNORA58 / RFU, C1orf63 / Fold change vs veh, C1orf63 / RFU, LRRFIP1 / Fold change vs veh, LRRFIP1 / RFU, NDUFAF7 / Fold change vs veh, NDUFAF7 / RFU, SLC12A2 / Fold change vs veh, SLC12A2 / RFU, IBTK / Fold change vs veh, IBTK / RFU, ESF1 / Fold change vs veh, ESF1 / Fold change vs veh, TMEM50B / RFU, TAOK1 / Fold change vs veh, TAOK1 / RFU, ACBD3 / Fold change vs veh, ACBD3 / RFU, TMA16 / Fold change vs veh, TMA16 / RFU, RWDD3 / Fold change vs veh, RWDD3 / RFU, BCAT1 / Fold change vs veh, BCAT1 / RFU, EDEM3 / Fold change vs veh, EDEM3 / RFU, TMEM33 / Fold change vs veh, TMEM33 / RFU, WDR75 / Fold change vs veh, WDR75 / RFU, AHCTF1 / Fold change vs veh, AHCTF1 / RFU, TFRC / Fold change vs veh, TFRC / RFU, ZDHHC17 / Fold change vs veh, ZDHHC17 / RFU, NOM1 / Fold change vs veh, NOM1 / RFU, ARL8B / Fold change vs veh, ARL8B / RFU, ZBTB11 / Fold change vs veh, ZBTB11 / RFU, TAMM41 / Fold change vs veh, TAMM41 / RFU, KIAA1704 /// LOC100996395 / Fold change vs veh, KIAA1704 /// LOC100996395 / RFU, ING1 / Fold change vs veh, ING1 / RFU, TRMT61B / Fold change vs veh, TRMT61B / RFU, FUBP3 / Fold change vs veh, FUBP3 / RFU, TP53 / Fold change vs veh, TP53 / RFU, TNKS2 / Fold change vs veh, TNKS2 / RFU, ZFP14 / Fold change vs veh, ZFP14 / RFU, ACTR2 / Fold change vs veh, ACTR2 / RFU, PPP3R1 / Fold change vs veh, PPP3R1 / RFU, PIK3R1 / Fold change vs veh, PIK3R1 / RFU, HNRNPA1 / Fold change vs veh, HNRNPA1 / RFU, RNF170 / Fold change vs veh, RNF170 / RFU, ZNF28 / Fold change vs veh, ZNF28 / RFU, RNGTT / Fold change vs veh, RNGTT / RFU, OGT / Fold change vs veh, OGT / RFU, BRD1 / Fold change vs veh, BRD1 / RFU, MARS / Fold change vs veh, MARS / RFU, ZNF655 / Fold change vs veh, ZNF655 / RFU, FAHD1 / Fold change vs veh, FAHD1 / RFU, BDP1 / Fold change vs veh, BDP1 / RFU, LRRCC1 / Fold change vs veh, LRRCC1 / RFU, ARID1A / Fold change vs veh, ARID1A / RFU, ZNF146 / Fold change vs veh, ZNF146 / RFU, ZNF330 / Fold change vs veh, ZNF330 / RFU, GPN3 / Fold change vs veh, GPN3 / RFU, C9orf123 / Fold change vs veh, C9orf123 / RFU, N4BP2L2 / Fold change vs veh, N4BP2L2 / RFU, ARFIP1 / Fold change vs veh, ARFIP1 / RFU, FAM179B / Fold change vs veh, FAM179B / RFU, BCL10 / Fold change vs veh, BCL10 / RFU, UHRF1BP1L / Fold change vs veh, UHRF1BP1L / RFU, BET1 / Fold change vs veh, BET1 / RFU, CNOT2 / Fold change vs veh, CNOT2 / RFU, ZNF268 / Fold change vs veh, ZNF268 / Fold change vs veh, ZNF507 / RFU, DGCR2 / Fold change vs veh, DGCR2 / RFU, WDSUB1 / Fold change vs veh, WDSUB1 / Fold change vs veh, HSP90B1 /// MIR3652 / RFU, ADSS / Fold change vs veh, ADSS / RFU, GK / Fold change vs veh, GK / RFU, ZNF148 / Fold change vs veh, ZNF148 / RFU, TAF9 / Fold change vs veh, TAF9 / RFU, SLC1A5 / Fold change vs veh, SLC1A5 / RFU, SLMO2 / Fold change vs veh, SLMO2 / RFU, ABCC4 / Fold change vs veh, ABCC4 / RFU, LOC101060439 /// RAP1B / Fold change vs veh, LOC101060439 /// RAP1B / RFU, RFX7 / Fold change vs veh, RFX7 / RFU, GTPBP10 / Fold change vs veh, GTPBP10 / RFU, CNEP1R1 / Fold change vs veh, CNEP1R1 / RFU, BIVM-ERCC5 /// ERCC5 / Fold change vs veh, BIVM-ERCC5 /// ERCC5 / RFU, ILF3 / Fold change vs veh, ILF3 / RFU 11762660_at / Fold change /veh 11762660_at / RFU VCAN (11757783_s_at) / Fold change /veh VCAN (11757783_s_at) / RFU DDX43 (11728927_at) / Fold change /veh DDX43 (11728927_at) / RFU KRT8 (11758188_x_at) / Fold change /veh KRT8 (11758188_x_at) / RFU NKD1 (11759106_at) / Fold change /veh NKD1 (11759106_at) / RFU SRD5A1 (11742802_a_at) / Fold change /veh SRD5A1 (11742802_a_at) / RFU TPSAB1 /// TPSB2 (11721975_s_at) / Fold change /veh TPSAB1 /// TPSB2 (11721975_s_at) / RFU GSTM3 (11746129_a_at) / Fold change /veh GSTM3 (11746129_a_at) / RFU IL23R (11737362_x_at) / Fold change /veh IL23R (11737362_x_at) / RFU TMEM51 (11727254_a_at) / Fold change /veh TMEM51 (11727254_a_at) / RFU PIWIL2 (11732686_x_at) / Fold change /veh PIWIL2 (11732686_x_at) / RFU ORM1 (11744905_x_at) / Fold change /veh ORM1 (11744905_x_at) / RFU CCDC152 (11743942_at) / Fold change /veh CCDC152 (11743942_at) / RFU ECM1 (11717891_a_at) / Fold change /veh ECM1 (11717891_a_at) / RFU IL23R (11748794_a_at) / Fold change /veh IL23R (11748794_a_at) / RFU TNFAIP8L3 (11732012_x_at) / Fold change /veh TNFAIP8L3 (11732012_x_at) / RFU MBOAT4 (11741988_at) / Fold change /veh MBOAT4 (11741988_at) / RFU 11764193_at / Fold change /veh 11764193_at / RFU TMEM53 (11763286_at) / Fold change /veh TMEM53 (11763286_at) / RFU MAGEB2 (11727129_at) / Fold change /veh MAGEB2 (11727129_at) / RFU TMEM200A (11744735_a_at) / Fold change /veh TMEM200A (11744735_a_at) / RFU CCDC152 (11751479_a_at) / Fold change /veh CCDC152 (11751479_a_at) / RFU FAM211A (11726209_a_at) / Fold change /veh FAM211A (11726209_a_at) / RFU RGS16 (11746705_a_at) / Fold change /veh RGS16 (11746705_a_at) / RFU VCAN (11755009_s_at) / Fold change /veh VCAN (11755009_s_at) / RFU RHOB (11743442_s_at) / Fold change /veh RHOB (11743442_s_at) / RFU RGS16 (11720943_a_at) / Fold change /veh RGS16 (11720943_a_at) / RFU RGS16 (11720944_at) / Fold change /veh RGS16 (11720944_at) / RFU, VPS4B / Fold change vs veh, VPS4B / RFU, CREB1 / Fold change vs veh, CREB1 / RFU, DNAJC13 / Fold change vs veh, DNAJC13 / RFU, GNAQ / Fold change vs veh, GNAQ / RFU, CDK5R1 / Fold change vs veh, CDK5R1 / RFU, ZRANB3 / Fold change vs veh, ZRANB3 / RFU, CUL4A / Fold change vs veh, CUL4A / RFU, CCNY / Fold change vs veh, CCNY / RFU, UFL1 / Fold change vs veh, UFL1 / RFU, COG3 / Fold change vs veh, COG3 / RFU, DIAPH2 / Fold change vs veh, DIAPH2 / RFU, SKA2 / Fold change vs veh, SKA2 / RFU, AFF3 / Fold change vs veh, AFF3 / RFU, LMF1 / Fold change vs veh, LMF1 / RFU, IPO11 / Fold change vs veh, IPO11 / RFU, DFFB / Fold change vs veh, DFFB / RFU, FOXP1 / Fold change vs veh, FOXP1 / RFU, CARD8 / Fold change vs veh, CARD8 / RFU, STRN3 / Fold change vs veh, STRN3 / RFU, ADK / Fold change vs veh, ADK / RFU, RASSF2 / Fold change vs veh, RASSF2 / RFU, WIPF1 / Fold change vs veh, WIPF1 / RFU, LARP1B / Fold change vs veh, LARP1B / RFU, RASA1 / Fold change vs veh, RASA1 / RFU, RB1 / Fold change vs veh, RB1 / RFU, PPFIA1 / Fold change vs veh, PPFIA1 / RFU, MAT2A / Fold change vs veh, MAT2A / RFU, CCT5 / Fold change vs veh, CCT5 / RFU, WDR92 / Fold change vs veh, WDR92 / RFU, CUX1 / Fold change vs veh, CUX1 / RFU, TTC7A / Fold change vs veh, TTC7A / RFU, TMEM135 / Fold change vs veh, TMEM135 / RFU, DEPTOR / Fold change vs veh, DEPTOR / RFU, CPM / Fold change vs veh, CPM / RFU, DNAJB6 / Fold change vs veh, DNAJB6 / RFU, CACNA2D3 / Fold change vs veh, CACNA2D3 / RFU, DTX4 / Fold change vs veh, DTX4 / RFU, TFCP2 / Fold change vs veh, TFCP2 / RFU, GMCL1 /// GMCL1P1 / Fold change vs veh, GMCL1 /// GMCL1P1 / RFU, AEBP2 / Fold change vs veh, AEBP2 / RFU, SNHG1 /// SNORD22 /// SNORD25 /// SNORD26 /// SNORD27 /// SNORD28 /// SNORD29 /// SNORD31 / Fold change vs veh, SNHG1 /// SNORD22 /// SNORD25 /// SNORD26 /// SNORD27 /// SNORD28 /// SNORD29 /// SNORD31 / Fold change (Aza/veh), C12orf56 (ProbeSet 11735607_a_at) / Fold change (ACY-1035/veh), C12orf56 (ProbeSet 11735607_a_at) / Fold change (Aza/veh), FGFR1OP (ProbeSet 11751329_s_at) / Fold change (ACY-1035/veh), FGFR1OP (ProbeSet 11751329_s_at) / Fold change (Aza/veh), VPS36 (ProbeSet 11739960_a_at) / Fold change (ACY-1035/veh), VPS36 (ProbeSet 11739960_a_at) / RFU SYPL1 (11715823_x_at) / Fold change /veh SYPL1 (11715823_x_at) / RFU IGFBP7 (11715501_s_at) / Fold change /veh IGFBP7 (11715501_s_at) / RFU REEP3 (11722064_at) / Fold change /veh REEP3 (11722064_at) / RFU IGLL1 (11728026_x_at) / Fold change /veh IGLL1 (11728026_x_at): dose or concentration left out as unconfirmed.

For the compound `Nc1ncn([C@@H]2O[C@H](CO)[C@@H](O)[C@H]2O)c(=O)n1` [azacitidine], the “Fold change /veh ID3 (11757404_x_at)” value is on record as 1.09.
